Structures can show the parent of a compound that is named as a salt.
Assays:
[1] = system: rabbit normal intraocular pressure; assay: Intraocular pressure reducing action; assay type: in vivo, Japanese white rabbit; conditions: Oryctolagus cuniculus, topical; 3 mM aqueous solution, 50 μl to the left eye; max IOP reduction (2, 4, 6 hours) / value immediately before administration; read-out: intraocular pressure reducing degree
Method in brief: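 Japanese white rabbits (~2 kg) under topical anaesthesia received 50 μl of a 3 mM aqueous test solution in the left eye, right eye untreated. IOP read by tonometer before and at 2, 4, 6 h; maximal left–right difference divided by pre-dose IOP ×100 gives % reduction.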

human ROCK1 = target: T1, human ROCK1 (Homo sapiens, UniProt Q13464); assay: Measurement of Rho kinase inhibitory activity (ELISA of MBS phosphorylation); assay type: biochemical; conditions: human ROCK1, MBS substrate, 100 μM ATP, 30° C. for 10 minutes
T1 construct: His tag (N); host or cells: insect cells (Sf9)
Method in brief: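 N-terminal His-tagged human ROCK1 (1-727, Sf9-expressed) phosphorylated plate-immobilized MBS in 20 mM HEPES pH 7.5, 100 μM ATP, 30° C for 10 minutes. Phospho-MBS detected by antibody ELISA (A490); IC50 is concentration giving 50% inhibition.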

TNF-α production = assay: Inhibitory effect on TNF-α production in mice (LPS); assay type: in vivo, BALB/c mice; conditions: Mus musculus, 1.5 h; oral administration of 30 mg/kg, LPS 5 μg i.p. 60 minutes later, plasma after 90 minutes; read-out: TNF-α production suppressing action
Procedure: BALB/c mice (Japan CRJ, famale) were used as experimental animals. Each test compound was dissolved in distilled water at a concentration suitable for the examination. The weight of each mouse was measured, a test compound solution was orally administered in a volume corresponding to 10 ml/kg, and only distilled water was administered to the control group. Each group consisted of five to seven animals. LPS was dissolved in physiological saline, and intraperitoneally administered to each mouse in an amount of 5 μg. The test compound was administered first, and LPS (lipopolysaccharide, Sigma) was administered 60 minutes later. After 90 minutes, blood was collected from the abdominal large vein in the presence of heparin, and plasma was obtained by centrifugation. TNF-α content in the plasma was measured by using the ELISA method.

[2] = system: mouse neuroblastoma cell strain N1E-115; assay: Inhibitory effect on neurite retraction (LPA-induced); assay type: cell-based; conditions: mouse/rat NG108-15; 10 μM compound, 1 μM LPA, N1E-115 cells
Procedure: An experiment for Inhibitory effect on neurite retraction using mouse neuroblastoma cell strain N1E-115 was performed according to the method of Hirose, M. et al. (J. Cell. Biol., 141, pp. 1625-1636 (1998)). This method utilizes the fact that LPA (lysophosphatidic acid), which is a endogenous substance, induces neurite retraction, and is a method of evaluating how much a drug can inhibit the LPA-induced neurite retraction and thereby evaluating potency of inhibition of neuronal degeneration and potency of neuronal regeneration of the drug. N1E-115 cells cultured in a DMEM solution containing 20% heat-inactivated fetal bovine serum were plated on a 6-well plate (IWAKI) at a density of 40,000 cells/well, and cultured overnight at 37° C. in the same culture medium in a 5% CO2 incubator. In order to induce differentiation of the N1E 115 cells into nerve cells, the culture medium was changed to the serum-free DMEM solution, and the cells were cultured for 1 or 2 days at 37° C. in the 5% CO2 incubator until most of the cells extended the neurites. On the examination day, each compound of the present invention was added at a final concentration of 10 μM, incubation was performed for 30 minutes, then LPA (Sigma) was added at a final concentration of 1 μM, and incubation was further performed for 10 minutes. To the control, the same volume of phosphate buffered saline as the solvent was added. After completion of the incubation, glutaraldehyde was added at a final concentration of 5% to fix the cells. […] The inhibition rate (%) of each drug was calculated by using the following equation. Inhibition rate(%)=100−(RCP obtained with drug to be evaluated−RCP of control)/(RCP obtained with LPA−RCP of control)×100

[3] = system: rat spinal canal stenosis (cauda equina compression-induced walking dysfunction) model; assay: Rat spinal canal stenosis model, walking ability test; assay type: in vivo; conditions: treadmill; for walk distance compared with the solvent repetitive administration group: 14th day of repetitive administration; for Inventive compound repetitive administration group (average distance (m)): 14th day of repetitive administration started 4th day after operation, 7 or 8 animals
From the text: A rat spinal canal stenosis (cauda equina compression-induced walking dysfunction) model can be prepared according to the method of Nakai, K et al. (Anesth. Analg., 94, pp. 1537-1541 (2002)) or the like. Namely, a rat is anesthetized with pentobarbital sodium, shaved on the back, and fixed in the abdominal position. After disinfection on the back with Isodine Surgical Scrub (Meiji Seika), a lumbar part is cut open along the median to expose the spine. Then, a silicone rubber of 1×4×1.5 mm (height×length×width) is inserted into the fifth lumbar vertebral canal from a small hole on the vertebral arch. Benzylpenicillin potassium (Crystalline Penicillin G Potassium Meiji, Meiji Seika) is dropped on the opened lesion and intramuscularly injected in the femoral region for the purpose of evasion of infectious diseases. The muscles and skin of the opened lesion are sutured with a ligature, and Isodine Surgical Scrub is applied to the sutured portion. Animals of sham group are also prepared according to the aforementioned method, provided that silicone rubber is not inserted.
In walking ability test, evaluation is performed by using a treadmill (Muromachi Kikai). A rat is placed on a traveling belt, adapted to the environment more than 3 minutes under a grid-electrified condition (0.04 to 4 mA), and then made to start walking from a velocity of 10 m/min, and then the velocity is increased by 5 m/min every 3 minutes. The walk is stopped, and electrical stimulation (0.04 to 4 mA) is applied to the rat which has moved to the grid for electrical stimulation provided before the traveling belt. Distance which the animal walked after the animal started the walk until the animal became unable to walk, i.e., the animal came not to walk even if a stimulation (sound, contact, electricity) was added to the animal to urge it to walk, was calculated from the walking time. Before the operation, the walking function test is carried out 3 times to perform training of walk. From the 4th day after the operation, repetitive administration of each compound of the present invention as a test compound was started, and the walking ability test was performed on the 14th day of the administration for the measurement.
Each group consisted of 7 or 8 animals, and the average distance before the administration was the average for the animals of both groups. […] It was confirmed that the compounds of the present invention were useful as medicaments for therapeutic treatment of a disease accompanied by walking dysfunction such as spinal canal stenosis.

intraocular pressure = assay: Rabbit intraocular pressure reduction enhancing action, Test Example 7-1 (combination use); assay type: in vivo, Japanese white rabbit; conditions: 19-1 compound 0.01 weight % aqueous solution 50 μL, left-right eye difference at 2, 4, 6 hours, six rabbits
Procedure: However, the effect is not limited to the 19-1 compound, and the ophthalmic solution concentration of the 19-1 compound is not limited to those used in this test example. Moreover, as for the test compound used for combination use, similar effect can be obtained also with the compounds of the present invention represented with the example numbers mentioned in Test Example 3.
As a test compound, the 19-1 compound was dissolved in physiological saline, and the solution was neutralized by addition of sodium hydroxide (pH 7.0 to 8.0) to prepare a 0.01 weight % aqueous solution (19-1 compound aqueous solution). As the drugs for combination use, isopropyl unoprostone (trade name: Rescula, Santen Pharmaceutical) was used as a prostaglandin-related drug, and brinzolamide hydrochloride (trade name: Azopt, Alcon Japan) was used as […], as the marketed formulations as they were.
A Japanese white rabbit having a body weight of about 2 kg was placed in a positioner and naturalized for one week before the experiment. An opthalmologic local anesthesant (Benoxil) was administered to both eyes, and then intraocular pressure before instillation was measured by using a tonometer (Classic 30, Solan). A test aqueous solution or the drug for combination use was administered to the left eye, and the right eye was not treated (control eye). The test groups consisted of (1) control group, (2) group instilled only with the 19-1 compound aqueous solution (single drug group 1), (3) group instilled only with the drug for combination use (single drug group 2), and (4) group instilled with the drug for combination use and the 19-1 compound aqueous solution (combination use group), and six rabbits were used for each group. As for the rabbits of these groups, 50 μL of physiological saline was first instilled to the control group, single drug group 1, and single drug group 2, and the drug for combination use was first instilled in the same volume to the combination use group. […] The intraocular pressure thereafter was measured for each group 2, 4 and 6 hours after the second administration of the test compound, and the difference of the measured values for the left and right eyes at each measurement time was considered an intraocular pressure reduction value of each group. The largest difference of the intraocular pressure values for the left and right eyes among those of the measured values of the measurement times was considered the maximum intraocular pressure reduction value (max ? IOP) of each drug group.

T1 sequence (Q13464 1-727): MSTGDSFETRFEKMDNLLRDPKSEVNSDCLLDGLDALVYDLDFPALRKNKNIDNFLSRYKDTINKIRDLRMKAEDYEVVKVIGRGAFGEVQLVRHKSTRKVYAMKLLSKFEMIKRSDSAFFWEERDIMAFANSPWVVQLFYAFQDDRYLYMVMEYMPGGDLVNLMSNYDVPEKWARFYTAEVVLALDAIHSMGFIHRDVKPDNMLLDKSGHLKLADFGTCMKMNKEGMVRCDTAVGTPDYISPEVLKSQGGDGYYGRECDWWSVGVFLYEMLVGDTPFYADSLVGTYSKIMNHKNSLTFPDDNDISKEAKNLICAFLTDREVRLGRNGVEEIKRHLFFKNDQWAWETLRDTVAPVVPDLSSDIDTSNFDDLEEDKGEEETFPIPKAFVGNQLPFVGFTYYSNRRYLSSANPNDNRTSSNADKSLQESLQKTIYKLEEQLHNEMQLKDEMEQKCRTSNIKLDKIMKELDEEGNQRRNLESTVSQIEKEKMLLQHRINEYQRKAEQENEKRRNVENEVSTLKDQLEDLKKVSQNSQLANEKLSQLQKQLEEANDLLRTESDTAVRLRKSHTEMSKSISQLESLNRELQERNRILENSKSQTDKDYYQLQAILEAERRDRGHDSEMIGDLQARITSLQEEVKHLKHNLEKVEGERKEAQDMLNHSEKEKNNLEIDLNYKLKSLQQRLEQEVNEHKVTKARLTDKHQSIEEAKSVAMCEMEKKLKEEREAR

Row | Structure (SMILES) | IC50 (human ROCK1) [µM] | inhibition in vivo at 3000 µM [1] [%] | inhibition in vivo at 30 mg/kg (TNF-α production) [%] | inhibition at 10 µM [2] [%] | walk distance compared with the solvent repetitive administration group [3] | Inventive compound repetitive administration group (average distance (m)) [3] [m] | Max IOP (maximum intraocular pressure reduction value) (intraocular pressure; Table 4, Azopt 50 μL) [mmHg] | Max IOP (maximum intraocular pressure reduction value) (intraocular pressure; Table 5, Rescula 50 μL) [mmHg]
1 | CCN[C@H]1CN(CCCOC)S(=O)(=O)c2sc(S(N)(=O)=O)cc21 [brinzolamide hydrochloride, reference compound] |  |  |  |  |  |  | 2.3 | 
2 | CCCCCCCC(=O)CC[C@@H]1[C@@H](C/C=C\CCCC(=O)OC(C)C)[C@@H](O)C[C@H]1O [isopropyl unoprostone, reference compound] |  |  |  |  |  |  |  | 4.4
3 | N[C@H]1CCN(S(=O)(=O)c2cccc3cncc(F)c23)C1 [Example 18-1, (S)-3-Amino-1-(4-fluoro-5-isoquinolinesulfonyl)pyrrolidine] | 1 to 3 | ≥ 20 | ≥ 50 | ≥ 50 |  |  |  | 
4 | O=S(=O)(c1cccc2cncc(Cl)c12)N1CC[C@H](NC2CCOCC2)C1 [Example 19-31] | 1 to 3 |  | ≥ 50 | ≥ 50 |  |  |  | 
5 | CN(C)CC(=O)N[C@H]1CCN(S(=O)(=O)c2cccc3cncc(Cl)c23)C1 [Example 57-1, (S)-3-[(2-Dimethylamino)acetyl]amino-1-(4-chloro-5-isoquinolinesulfonyl)pyrrolidine] | 1 to 3 | ≥ 20 | ≥ 30 |  | extended the walk distance | 183 |  | 
6 | CN[C@H]1CCN(S(=O)(=O)c2cccc3c(N)ncc(Cl)c23)C1 [Example 40-1, (S)-1-(1-Amino-4-chloro-5-isoquinolinesulfonyl)-3-(methylamino)pyrrolidine] | 1 to 3 | 5 to 10 | ≥ 50 | ≥ 50 |  |  |  | 

Continued, in another order:

Row | IC50 (human ROCK1) [µM] | Structure (SMILES) | inhibition in vivo at 3000 µM [1] [%] | inhibition in vivo at 30 mg/kg (TNF-α production) [%] | inhibition at 10 µM [2] [%] | walk distance compared with the solvent repetitive administration group [3] | Inventive compound repetitive administration group (average distance (m)) [3] [m] | Max IOP (maximum intraocular pressure reduction value) (intraocular pressure; Table 4, Azopt 50 μL) [mmHg] | Max IOP (maximum intraocular pressure reduction value) (intraocular pressure; Table 5, Rescula 50 μL) [mmHg]
7 | < 1 | N[C@H]1CCN(S(=O)(=O)c2cccc3c(O)ncc(F)c23)C1 [Example 29-1, (S)-3-Amino-1-(1-hydroxy-4-fluoro-5-isoquinolinesulfonyl)pyrrolidine] | 10 to 20 | ≥ 50 | ≥ 50 |  |  |  | 
8 | < 1 | CN[C@@H]1CCN(S(=O)(=O)c2cccc3cncc(Cl)c23)C1 [Example 32-2, (R)-1-(4-Chloro-5-isoquinolinesulfonyl)-3-(methylamino)pyrrolidine] | 10 to 20 |  | ≥ 50 |  |  |  | 
9 | < 1 | Cc1cncc2cccc(S(=O)(=O)N3CC[C@H](N)C3)c12 [Example 8-1, (S)-3-Amino-1-(4-methyl-5-isoquinolinesulfonyl)pyrrolidine] | ≥ 20 | ≥ 50 |  | extended the walk distance | 169 |  | 
10 | < 1 | Nc1ncc(Cl)c2c(S(=O)(=O)N3CC[C@H](N)C3)cccc12 [Example 39-1, (S)-3-Amino-1-(1-amino-4-chloro-5-isoquinolinesulfonyl)pyrrolidine] | 10 to 20 | ≥ 50 | ≥ 50 |  |  |  | 
11 | < 1 | CN[C@H]1CCN(S(=O)(=O)c2cccc3c(N)ncc(Br)c23)C1 [Example 42-1, (S)-1-(1-Amino-4-bromo-5-isoquinolinesulfonyl)-3-(methylamino)pyrrolidine] | 5 to 10 |  | ≥ 50 |  |  |  | 
12 | < 1 | O=S(=O)(c1cccc2cncc(Br)c12)N1CC[C@H](NCc2ccc[nH]2)C1 [Example 1-18] | 10 to 20 | ≥ 50 | ≥ 50 |  |  |  | 
